Holding throughout (experiment): In vitro enzyme inhibitory activity (Caliper mobility shift, FAM labeled peptide)
Type in all cases: biochemical
Holding throughout (settings): 28° C., 1 h reaction

Assay [1] concerns the target HER2 (Homo sapiens (Human), UniProt P04626). The procedure:
(§1) In Vitro Enzyme Inhibitory Activity of the Present Compounds
HER2: human epidermal growth factor receptor 2 (Carna);
(§2) 1. Formulating the agents to be used in the assay
(§3) (6) 5-fold compound solutions (using 100% DMSO to formulate 50-fold compound solutions having different concentration gradients, and diluting with water by 10 times to obtain 5-fold compound solutions having different concentration gradients);
(§4) 2. Adding 5 μL of a 5-fold compound solution to a 384-well plate;
(§5) 3. Adding 10 μL of a 2.5-fold kinase solution to incubate for 10 min;
(§6) 4. Then adding 10 μL of a 2.5-fold peptide solution, and reacting at 28° C. for 1 h; and
(§7) 5. Finally, adding 25 μL of stop buffer to terminate the reaction, and reading the data with Caliper.
(§8) 6. Curve fitting to obtain an IC50 value. The calculated inhibition ratio (%)=(the maximum conversion rate−the conversion rate)/(the maximum conversion rate−the minimum conversion rate)×100
(§9) The curve fitting was conducted with the Xlfit software to obtain IC50 values.

Assay [2] concerns the target HER4 (Homo sapiens (Human), UniProt Q15303). The procedure: as §1
HER4: human epidermal growth factor receptor 4 (Carna).
as §2, §3, §4, §5, §6, §7, §8, §9

Assay [3] addresses EGFR (Homo sapiens (Human), UniProt P00533). The procedure: as §1
EGFR: human epidermal growth factor receptor (Carna);
as §2, §3, §4, §5, §6, §7, §8, §9

Among the data in patent publication US9730934B2, “Quinazoline derivatives substituted by aniline, preparation method and use thereof” (XUANZHU PHARMA CO., LTD., priority 2010, dated 2017) are IC50 values, retold here.

Where a name gives a salt, the structure may show the parent alone.

The term IC50 denotes the concentration needed to halve the response being measured.

Sequence of EGFR (P00533 25-1210): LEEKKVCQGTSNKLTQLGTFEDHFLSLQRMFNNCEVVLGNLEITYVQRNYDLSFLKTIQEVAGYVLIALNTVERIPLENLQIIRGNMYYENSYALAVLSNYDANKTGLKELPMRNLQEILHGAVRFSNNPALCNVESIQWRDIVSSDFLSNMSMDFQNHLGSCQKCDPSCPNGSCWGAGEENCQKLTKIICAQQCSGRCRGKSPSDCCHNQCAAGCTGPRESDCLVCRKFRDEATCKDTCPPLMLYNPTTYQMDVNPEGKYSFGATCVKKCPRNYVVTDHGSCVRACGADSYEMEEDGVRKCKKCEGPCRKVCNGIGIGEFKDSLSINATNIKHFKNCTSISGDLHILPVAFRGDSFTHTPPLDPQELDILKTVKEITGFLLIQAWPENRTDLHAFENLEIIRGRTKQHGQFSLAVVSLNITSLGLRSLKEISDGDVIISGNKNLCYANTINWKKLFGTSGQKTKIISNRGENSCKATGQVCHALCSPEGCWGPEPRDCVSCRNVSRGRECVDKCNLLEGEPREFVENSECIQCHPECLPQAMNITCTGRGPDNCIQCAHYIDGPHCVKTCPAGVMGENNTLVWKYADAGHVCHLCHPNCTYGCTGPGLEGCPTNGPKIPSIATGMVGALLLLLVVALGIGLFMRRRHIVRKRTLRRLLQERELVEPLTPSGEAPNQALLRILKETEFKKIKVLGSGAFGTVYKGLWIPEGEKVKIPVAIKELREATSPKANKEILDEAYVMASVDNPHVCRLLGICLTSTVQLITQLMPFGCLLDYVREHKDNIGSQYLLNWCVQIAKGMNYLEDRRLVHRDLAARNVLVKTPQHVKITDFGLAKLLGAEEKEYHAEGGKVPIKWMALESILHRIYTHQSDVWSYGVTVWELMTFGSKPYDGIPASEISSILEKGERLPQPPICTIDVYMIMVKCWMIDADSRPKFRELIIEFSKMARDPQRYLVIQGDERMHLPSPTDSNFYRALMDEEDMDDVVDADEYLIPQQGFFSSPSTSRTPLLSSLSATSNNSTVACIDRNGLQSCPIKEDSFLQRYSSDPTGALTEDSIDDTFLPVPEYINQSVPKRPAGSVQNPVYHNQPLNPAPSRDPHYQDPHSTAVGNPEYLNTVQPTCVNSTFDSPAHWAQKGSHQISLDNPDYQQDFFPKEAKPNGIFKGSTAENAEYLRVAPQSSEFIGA
Sequence of HER4 (Q15303 26-1308): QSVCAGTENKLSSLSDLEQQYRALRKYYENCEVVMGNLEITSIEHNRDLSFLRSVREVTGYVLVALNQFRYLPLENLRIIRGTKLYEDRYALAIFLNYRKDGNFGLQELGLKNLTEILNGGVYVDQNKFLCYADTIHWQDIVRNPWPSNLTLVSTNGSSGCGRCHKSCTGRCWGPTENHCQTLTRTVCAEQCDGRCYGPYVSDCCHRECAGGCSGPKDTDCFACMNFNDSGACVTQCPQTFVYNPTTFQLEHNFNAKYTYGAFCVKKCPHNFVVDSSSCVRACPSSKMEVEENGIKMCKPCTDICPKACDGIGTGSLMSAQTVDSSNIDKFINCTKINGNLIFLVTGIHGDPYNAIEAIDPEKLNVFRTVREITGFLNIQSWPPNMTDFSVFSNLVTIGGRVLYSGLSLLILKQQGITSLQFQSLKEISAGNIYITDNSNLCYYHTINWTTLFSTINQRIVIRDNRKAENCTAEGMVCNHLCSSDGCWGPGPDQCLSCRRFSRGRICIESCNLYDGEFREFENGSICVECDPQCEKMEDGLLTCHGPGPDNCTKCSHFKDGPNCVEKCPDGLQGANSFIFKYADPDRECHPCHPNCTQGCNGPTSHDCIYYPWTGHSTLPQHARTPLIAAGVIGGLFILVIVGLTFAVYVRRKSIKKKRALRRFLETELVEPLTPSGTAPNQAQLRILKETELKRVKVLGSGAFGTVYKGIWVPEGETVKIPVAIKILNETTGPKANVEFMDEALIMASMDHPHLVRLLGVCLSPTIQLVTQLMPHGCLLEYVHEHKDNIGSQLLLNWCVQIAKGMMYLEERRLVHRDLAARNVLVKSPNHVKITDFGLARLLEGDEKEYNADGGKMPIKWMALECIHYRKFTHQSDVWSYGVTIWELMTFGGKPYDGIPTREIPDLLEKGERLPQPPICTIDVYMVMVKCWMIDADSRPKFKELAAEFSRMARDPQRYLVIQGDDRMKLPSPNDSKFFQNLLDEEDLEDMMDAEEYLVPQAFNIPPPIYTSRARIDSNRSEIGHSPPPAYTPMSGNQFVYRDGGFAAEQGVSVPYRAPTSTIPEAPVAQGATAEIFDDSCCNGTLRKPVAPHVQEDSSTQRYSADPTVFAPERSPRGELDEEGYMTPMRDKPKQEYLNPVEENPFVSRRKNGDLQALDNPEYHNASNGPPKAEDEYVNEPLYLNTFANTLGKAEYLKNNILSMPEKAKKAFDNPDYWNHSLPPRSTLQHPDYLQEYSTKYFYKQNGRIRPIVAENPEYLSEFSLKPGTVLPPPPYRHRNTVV
Sequence of HER2 (P04626 23-1255): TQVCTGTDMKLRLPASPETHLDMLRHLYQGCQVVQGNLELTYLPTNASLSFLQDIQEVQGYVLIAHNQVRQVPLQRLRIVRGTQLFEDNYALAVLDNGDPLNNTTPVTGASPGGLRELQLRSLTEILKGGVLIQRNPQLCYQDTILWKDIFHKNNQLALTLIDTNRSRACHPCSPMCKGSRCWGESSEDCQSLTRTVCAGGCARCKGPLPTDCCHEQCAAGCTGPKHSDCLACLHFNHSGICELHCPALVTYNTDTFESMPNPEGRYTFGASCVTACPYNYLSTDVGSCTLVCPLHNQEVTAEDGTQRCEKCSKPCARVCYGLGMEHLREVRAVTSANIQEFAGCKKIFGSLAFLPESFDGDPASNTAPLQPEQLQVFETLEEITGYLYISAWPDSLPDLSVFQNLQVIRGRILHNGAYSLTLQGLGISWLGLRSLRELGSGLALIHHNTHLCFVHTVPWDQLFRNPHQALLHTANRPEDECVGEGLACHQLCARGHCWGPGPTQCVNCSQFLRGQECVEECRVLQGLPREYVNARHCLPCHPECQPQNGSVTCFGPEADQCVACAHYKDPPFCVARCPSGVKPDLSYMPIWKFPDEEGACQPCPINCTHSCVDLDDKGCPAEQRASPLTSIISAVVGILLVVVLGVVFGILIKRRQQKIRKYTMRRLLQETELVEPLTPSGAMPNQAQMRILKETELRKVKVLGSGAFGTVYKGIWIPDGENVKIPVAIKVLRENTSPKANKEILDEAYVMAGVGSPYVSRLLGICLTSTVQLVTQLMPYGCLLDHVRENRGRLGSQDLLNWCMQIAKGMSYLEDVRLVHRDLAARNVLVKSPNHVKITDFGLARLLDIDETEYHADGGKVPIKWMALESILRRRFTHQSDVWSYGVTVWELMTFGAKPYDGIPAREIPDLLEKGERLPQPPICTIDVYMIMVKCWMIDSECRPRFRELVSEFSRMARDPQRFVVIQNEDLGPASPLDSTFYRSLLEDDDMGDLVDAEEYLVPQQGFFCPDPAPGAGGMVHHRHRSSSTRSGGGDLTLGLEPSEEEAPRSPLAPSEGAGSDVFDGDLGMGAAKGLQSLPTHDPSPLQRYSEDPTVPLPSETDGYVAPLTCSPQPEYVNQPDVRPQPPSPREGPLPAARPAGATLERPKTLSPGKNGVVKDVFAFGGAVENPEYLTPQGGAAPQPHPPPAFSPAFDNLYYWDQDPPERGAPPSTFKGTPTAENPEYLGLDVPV

`C=CC(=O)Nc1cc2c(Nc3ccc(F)c(Cl)c3)ncnc2cc1OCC1COC2(CCN(C)CC2)C1` (stereo not shown) [Compound 6, N-[4-(3-chloro-4-fluorophenylamino)-7-((8-methyl-1-oxa-8-azaspiro[4.5]decan-3-yl)methoxy)quinazolin-6-yl]-acrylamide]: the IC50 came out at 7.1 nM in assay [1], 1.4 nM in assay [2] and 1 nM in assay [3].
Take `C=CC(=O)Nc1cc2c(Nc3ccc(F)c(Cl)c3)ncnc2cc1OCC1CCC2(CCN(C)CC2)O1` (stereo not shown) [Compound 7, N-[4-(3-chloro-4-fluorophenylamino)-7-(8-methyl-1-oxa-8-azaspiro[4.5]decan-2-ylmethoxy)quinazolin-6-yl]-acrylamide]: the IC50 was found to be 4.3 nM in assay [1] and 1.7 nM in assay [2].
The like results for `C=CC(=O)Nc1cc2c(Nc3ccc(F)c(Cl)c3)ncnc2cc1OCC[C@@H]1[C@H]2CN(C)C[C@@H]12` [Compound 8] were, in that order, 6.5 nM and 3.4 nM.
Consider `C=CC(=O)Nc1cc2c(Nc3ccc(F)c(Cl)c3)ncnc2cc1OCCC1C2CCC1CN(C)C2` (stereo not shown) [Compound 11, N-[4-(3-chloro-4-fluorophenylamino)-7-(2-(3-methyl-3-azabicyclo[3.2.1]octan-8-yl)ethoxy)quinazolin-6-yl]-acrylamide], for which the 50% inhibitory concentration (IC50) is 12 nM in assay [1], 8.3 nM in assay [2] and 0.8 nM in assay [3].
`C=CC(=O)Nc1cc2c(Nc3ccc(F)c(Cl)c3)ncnc2cc1OCCC1CC12CCN(C)CC2` (stereo not shown) [Compound 14, N-[4-(3-chloro-4-fluorophenylamino)-7-(2-(6-methyl-6-azaspiro[2.5]octan-1-yl)ethoxy)quinazolin-6-yl]-acrylamide]: the IC50 in assay [1] worked out at 2.6 nM; in assay [2] it was 1.2 nM; in assay [3], 0.39 nM.
The like results for `C=CC(=O)Nc1cc2c(Nc3ccc(F)c(Cl)c3)ncnc2cc1OCC1CC2(CCN(C)CC2)C1` [Compound 18, N-[4-(3-chloro-4-fluorophenylamino)-7-((7-methyl-7-azaspiro[3.5]nonan-2-yl)methoxy)quinazolin-6-yl]-acrylamide] were, in that order, 6.5 nM, 1.9 nM and 1 nM.
In the same order, the values of `C=CC(=O)Nc1cc2c(Nc3ccc(F)c(Cl)c3)ncnc2cc1OCCC1CC2(CCN(C)CC2)C1` [Compound 19 hydrochloride, N-[4-(3-chloro-4-fluorophenylamino)-7-(2-(7-methyl-7-azaspiro[3.5]nonan-2-yl)ethoxy)quinazolin-6-yl]-acrylamide hydrochloride] are 3.1 nM, 3.7 nM and 0.56 nM.
